Results: ChEMBL document CHEMBL5143615, “Novel 2-aryl-4-aryloxyquinoline-based fungistatics for Mucor circinelloides. Biological evaluation of activity, QSAR and docking study” (Bioorg Med Chem Lett, 2022)

Each molecule was assayed on Mucor circinelloides (assay: Antifungal activity against Mucor circinelloides R7B wild type strain assessed as reduction in spore germination at 100 ug/ml relative to control). Conditions: dose 100 µg/ml.
Type: functional
Parameters: scale not given: the % may be the effect or the level left
Work on FC(F)(F)c1ccc(Oc2cc(-c3cccc(Cl)c3)nc3ccccc23)cc1 yielded an Activity of 42.2%. Molecule COc1cc(-c2ccc(Cl)cc2)nc2ccccc12 has an Activity of 98.1%. COc1cc(-c2ccc(Cl)c(Cl)c2)nc2ccccc12 gave an Activity of 96.1%.

The molecules below were run on Mucor circinelloides (assay: Antifungal activity against Mucor circinelloides M5 strain assessed as reduction in spore germination at 100 ug/ml relative to control). Conditions: dose 100 µg/ml.
Type: functional
Parameters: scale not given: the % may be the effect or the level left
Molecule FC(F)(F)c1ccc(Oc2cc(-c3cccc(Cl)c3)nc3ccccc23)cc1 has an Activity of 38.3%. COc1cc(-c2ccc(Cl)cc2)nc2ccccc12 showed an Activity of 97.3%. COc1cc(-c2ccc(Cl)c(Cl)c2)nc2ccccc12 gave an Activity of 93.7%.
